How the values were obtained:
[1] = tested on: ENR+CD organoids (ISC to Paneth cell differentiation); test: Primary screen: basal (non-stimulated) lysozyme secretion LYZ.NS, 2.5-D 384-well ENR+CD organoid differentiation; type: cell-based, mouse; conditions: primary screen; for Z.LYZ.NS: standard z score; for Dose.FC.LYZ.NS: FC vs plate median
Text: (§1) High-throughput screening.

ENR+CD organoids = test: Primary screen: ATP (CellTiter-Glo 3D, CTG) cell number/viability, 2.5-D 384-well ENR+CD organoids; conditions: primary screen; for Dose.FC.CTG: FC vs plate median; for Z.CTG: standard z score;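 as to all read-outs here: compounds given at plating and again on day 3 over a 6-day differentiation from ENR+CV stem-cell-enriched precursors, ATP measured on day 6, plate median as control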
[2] = tested on: ENR+CD organoids (ISC to Paneth cell differentiation); test: Primary screen: CCh-stimulated lysozyme secretion LYZ.S, 2.5-D 384-well ENR+CD organoid differentiation; type: cell-based, mouse; conditions: primary screen, FC vs plate median
Text: as §1

Compound	Z.LYZ.NS ([1]; dose 0.08 uM)	Z.LYZ.NS ([1]; dose 0.40 uM)	Z.LYZ.NS ([1]; dose 2.00 uM)	Z.LYZ.NS ([1]; dose 10.00 uM)	Dose.FC.LYZ.NS ([1]; dose 0.08 uM) [log2 fold change]	Dose.FC.LYZ.NS ([1]; dose 0.40 uM) [log2 fold change]	Dose.FC.LYZ.NS ([1]; dose 2.00 uM) [log2 fold change]	Dose.FC.LYZ.NS ([1]; dose 10.00 uM) [log2 fold change]	Dose.FC.CTG (ENR+CD organoids; dose 0.08 uM) [log2 fold change]	Dose.FC.CTG (ENR+CD organoids; dose 0.40 uM) [log2 fold change]	Dose.FC.CTG (ENR+CD organoids; dose 2.00 uM) [log2 fold change]	Dose.FC.CTG (ENR+CD organoids; dose 10.00 uM) [log2 fold change]	Dose.FC.LYZ.S ([2]; dose 0.08 uM) [log2 fold change]	Dose.FC.LYZ.S ([2]; dose 0.40 uM) [log2 fold change]	Dose.FC.LYZ.S ([2]; dose 2.00 uM) [log2 fold change]	Dose.FC.LYZ.S ([2]; dose 10.00 uM) [log2 fold change]	Z.CTG (ENR+CD organoids; dose 0.08 uM)	Z.CTG (ENR+CD organoids; dose 0.40 uM)	Z.CTG (ENR+CD organoids; dose 2.00 uM)	Z.CTG (ENR+CD organoids; dose 10.00 uM)
Nc1nc(CC(=O)Nc2ccc(CCNC[C@H](O)c3ccccc3)cc2)cs1 [Mirabegron]	1.201	−0.259	−0.301	0.193	0.138	−0.030	−0.035	0.022	0.029	−0.335	0.019	−0.051	0.148	−0.016	−0.049	−0.010				
O=C(NCCN1CCOCC1)c1ccc(Cl)cc1 [Moclobemide (Ro 111163)]	0.654	1.055	0.011	−0.243	0.075	0.121	0.001	−0.028	0.146	0.106	0.116	0.042	0.147	0.094	0.012	0.019	0.348	0.252	0.276	0.100
Cc1ccccc1C(=O)Nc1ccc(C(=O)N2CCCC(N(C)C)c3ccccc32)cc1 (stereo not shown) [Mozavaptan]	0.584	−0.233	0.294	−1.752	0.067	−0.027	0.034	−0.201	0.320	0.235	0.108	−0.336	0.086	0.165	0.106	−0.270				
FC(F)(F)c1ccc(/C=C/c2nc(COc3ccc(CCCCn4ccnn4)cc3)co2)cc1 [Mubritinib (TAK 165)]	−0.500	−1.687	−1.950	−2.092	−0.057	−0.194	−0.224	−0.240	−0.524	−0.340	−0.530	−0.519	−0.119	−0.154	−0.299	−0.294	−1.252	−0.812	−1.265	−1.240
CCCCCCCCCCCCCCCCn1cc[n+](Cc2ccccc2)c1C.[I-] [NH125]	−0.301	−1.634	−1.904	−2.293	−0.035	−0.188	−0.219	−0.263	−0.347	−0.508	−1.106	−1.787	−0.114	−0.237	−0.358	−0.374	−0.829	−1.213	−2.641	−4.268
Cc1cc(OCc2nnc(SC3CCCC3)n2-c2cccnc2)ccc1-c1ccc(S(C)(=O)=O)cc1 [NMS-873]	0.853	−1.537	−2.352	−2.368	0.098	−0.177	−0.270	−0.272	0.174	−0.051	−0.910	−1.542	0.069	−0.228	−0.343	−0.375				
CC(C)(Cc1ccc2ccccc2c1)NC[C@@H](O)COc1cccc(Cl)c1C#N [NPS-2143]	1.413	−0.416	−0.674	−0.597	0.162	−0.048	−0.077	−0.069	0.149	−0.195	−0.246	−0.118	0.147	−0.062	−0.161	−0.116	0.356	−0.466	−0.587	−0.282
Cc1ccc(S(=O)(=O)c2ccc([N+](=O)[O-])o2)cc1 [NSC697923]	0.789	0.441	−0.906	−1.338	0.091	0.051	−0.104	−0.154	−0.052	−0.014	−0.101	−0.782	0.036	0.108	−0.154	−0.270	−0.123	−0.033	−0.241	−1.867
CCN(CC)CCCC(C)Nc1nc(C)cc(Nc2ccc3nc(C)cc(N)c3c2)n1 (stereo not shown) [NSC 23766]	0.701	0.380	0.506	0.080	0.081	0.044	0.058	0.009	0.043	0.170	0.117	0.324	0.080	0.090	0.031	0.030	0.103	0.406	0.279	0.774
C/C(=N\NC(=S)N1CCC1)c1ccccn1 [NSC 319726]	0.982	−0.780	−1.323	−1.992	0.113	−0.090	−0.152	−0.229	0.132	−0.185	−0.447	−1.907	0.060	−0.035	−0.248	−0.327	0.316	−0.441	−1.068	−4.555
CCCC(C)NC(=O)c1ccc(Cl)c(Cl)c1 (stereo not shown) [NSC 405020]	0.071	−0.246	0.160	−0.570	0.008	−0.028	0.018	−0.065	−0.059	−0.071	−0.059	−0.058	0.014	0.093	0.002	−0.061	−0.140	−0.170	−0.141	−0.138

From US20220323406A1, “METHODS AND COMPOSITIONS FOR DIFFERENTIATING STEM CELLS” (Massachusetts Institute of Technology, priority 2019, published 2022)
